The values that follow come from PubChem BioAssay (NCI).

Common to all, as to test: growth of human tumour cells (NCI), 48 h
Experiment [1] deals with CCRF-CEM leukemia.
Experiment [2] relates to HCT-116 colon.
Experiment [3] concerns HL-60(TB) leukemia.
The subject of experiment [4] is NCI-H522 lung.
For experiment [5], the system named is OVCAR-3 ovarian.
The subject of experiment [6] is OVCAR-4 ovarian.
Experiment [7] deals with OVCAR-5 ovarian.
Experiment [8] relates to SNB-75 CNS.
In experiment [9] the test system is UO-31 renal.
Experiment [10] relates to SR leukemia.

Values joined by “and” are separate entries in the source; they are usually repeats but may differ in a detail not shown here. Identical values can stand only once.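 Each compound was tested at five concentrations against cells in 96-well plates for 48 hours. Abbreviation: GI50, concentration required for 50% inhibition of growth. TGI denotes the concentration required for complete inhibition of growth.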

Turning to `COC(=O)C1=CC2OC13CC1CCC3(C2=O)C1(C)C` (stereo not given), the TGI was determined as 14.6 µM in [1]; 23.5 µM in experiment [2]; 23.1 µM in [3]; 9.37 µM in [4]; 20 µM in [5]; 23.3 µM in [6]. In addition, the TGI in [7] was 33.2 µM; in experiment [8], 19.9 µM; in experiment [9] it was 19.1 µM.
Regarding `Cc1ccc(S(=O)(=O)N/N=C(\C(=O)Nc2cccc([N+](=O)[O-])c2)c2nc3ccc([N+](=O)[O-])cc3[nH]c2=O)cc1`, the TGI in [1], in experiment [2], in [4], in experiment [5], in experiment [6] and in experiment [7] was above 100 µM throughout. Also, the TGI in experiment [10] and in experiment [9] was above 100 µM throughout.
Consider `COC1CC2CCC(C)[C@](O)(O2)C(=O)C(=O)N2CCCCC2C(=O)OC(C(C)CC2CCC(O)C(OC)C2)CC(=O)C(C)C=C(C)C(OC(=O)CN(C)C)C(OC)C(=O)C(C)CC(C)/C=C/C=C/C=C\1C` (stereo not given in full), for which the TGI in experiment [1] is 5.42 µM; in [2], 22.2 µM; in experiment [3], 6.38 µM; in experiment [4], 22.6 µM; in experiment [5], 22 µM; in experiment [7], 26.4 µM. The same molecule gave a TGI in experiment [9] of 5.27 µM.
`COC(=O)C1C(=O)O[C@@H](c2ccc(OC)cc2OC)C1C(=O)OC` (stereo not given in full): the TGI in experiment [1], in experiment [2], in [3], in experiment [5], in [6] and in [7] was above 100 µM each time. Moreover, the TGI in experiment [8], in [10] and in experiment [9] was above 100 µM in each case.
On to `Cn1c2cccc3nnc4cccc(c4c32)n1C`, for which the TGI in experiment [1], in experiment [2], in experiment [3], in experiment [5], in experiment [6] and in [7] was above 100 µM in each case. The molecule further showed a TGI in [9] above 100 µM.
Turning to `O=C(CC1(O)C(=O)Nc2c(Cl)cc(Cl)cc21)c1ccc2ccccc2c1` (stereo not given), the TGI in experiment [1] was 39 µM; in [2], 13.4 µM; in experiment [3], 14.6 µM; in [4] it was 10.9 µM; in experiment [5], 18.6 µM; in [6] it was 26.4 µM. The TGI in experiment [7] was determined as 30.3 µM; in experiment [8], 13.5 µM; in [9] it was 24.5 µM.
In the case of `Cc1ccc2[nH]c(=O)c(C(C#N)c3ccccc3)nc2c1` (stereo not given), the TGI in [1] was above 100 µM; in experiment [2], above 100 µM; in [4], 70.7 µM; in experiment [5] it was above 100 µM; in experiment [6] it was above 100 µM; in [7] it was above 100 µM. Moreover, the figures for the TGI in [8], in [10] and in [9] were above 100 µM, above 100 µM and 69.9 µM, respectively.
On to `CCC[CH2][Sn]([CH2]CCC)([S]C1=NCCS1)[S]C1=NCCS1`, for which the GI50 was 0.0231 µM in experiment [1]; 0.615 µM in [2]; 0.298 µM in [3]; 0.0133 µM in [4]; 0.563 µM in experiment [5]; 0.964 µM in [6]. In addition, the GI50 in experiment [7] was 2.29 µM; in experiment [8], 0.0857 µM; in [9], 1.13 µM. Besides, the TGI in experiment [1] turned out to be 0.226 µM; in experiment [2] it was 1.91 µM; in experiment [3], 0.881 µM; in [4] it was 0.0562 µM; in [5], 1.87 µM; in [6], 2.24 µM. In addition, the values for the TGI in [7], in experiment [8] and in [9] were 3.78 µM, 1.39 µM and 2.51 µM, respectively.
Regarding `ON(CCc1ccccn1)Cc1ccccc1`, the TGI in experiment [2], in experiment [4], in [5], in experiment [6], in experiment [7] and in [8] was above 100 µM each time. Moreover, the TGI in experiment [10] and in experiment [9] was above 100 µM each time.
Regarding `O=C1c2ccccc2C(=O)c2nc(-c3ccccc3)c(-c3ccccc3)nc21`, the TGI in experiment [1] was above 100 µM; in experiment [2] it was above 100 µM; in experiment [4], above 100 µM; in [5], 13.2 µM; in [6], above 66.9 µM; in experiment [7] it was above 100 µM. Besides, the TGI in [8] is 29.2 µM; in [9], above 100 µM.
Consider `C=CCN(N=O)C(=O)N(CCC)CCCCC(NC(C)=O)C(=O)NCc1ccccc1` (stereo not given), for which the TGI in experiment [1] was above 100 µM; in experiment [3], 54.4 µM; in experiment [4] it was above 100 µM; in experiment [5] it was above 100 µM; in [6] it was above 100 µM; in experiment [7] it was above 100 µM. Also, the TGI in [8] and in experiment [9] was above 100 µM in each case.
With `O=C(Cn1ccnc1[N+](=O)[O-])NCC(F)(F)C(F)(F)F`, the GI50 in experiment [2], in experiment [4], in experiment [5], in experiment [6], in experiment [7] and in [8] was above 100 µM each time. The GI50 in experiment [9] is above 100 µM. For the same molecule, the TGI in experiment [2], in experiment [4], in experiment [5], in experiment [6], in [7] and in experiment [8] was above 100 µM throughout. The same molecule yielded a TGI in experiment [9] above 100 µM.
With `Cc1ccc(C2=NO[C@@H]3C(=O)N(c4ccc(Cc5ccc(N6C(=O)[C@H]7C(c8ccc(C)cc8)=NO[C@H]7C6=O)cc5)cc4)C(=O)[C@H]23)cc1`, the TGI in experiment [1], in experiment [3], in experiment [5], in [6], in experiment [7] and in experiment [8] was above 100 µM throughout. In experiment [9], this molecule showed a TGI above 100 µM.
As for `CNC1C(O)CC(OC2C/C=C(\C)C/C(C)=C/C=C/CCC(C)CNC(=O)/C=C/C=C/C2C)OC1C` (stereo not given), the TGI in experiment [1] was 0.758 µM; in experiment [2] it was 0.324 µM; in experiment [3], 0.37 µM; in experiment [4], 2.81 µM; in experiment [5], 1.78 µM; in experiment [6], 0.668 µM. In addition, the results for the TGI in [7], in experiment [8] and in [9] were 2.53 µM, 2.91 µM and 5.85 µM, respectively.
On to `CC(=O)Nc1ccc(/C=C/C(=O)c2sc(C(N)=S)nc2C)cc1`, for which the TGI in experiment [1], in experiment [3], in experiment [4], in experiment [5], in experiment [7] and in experiment [8] was above 100 µM throughout. In [9], this molecule registered a TGI above 100 µM.
`Nc1ccn([C@@H]2C=C(CO)[C@@H](O)[C@H]2O)c(=O)n1`: the TGI is 294 µM and > 625 µM in experiment [1]; 500 µM and > 625 µM in [5]; 128 µM and > 625 µM in experiment [8]. In addition, the results for the GI50 in experiment [4], in experiment [7] and in experiment [10] were 0.0242 µM, 0.13 µM and 0.05 µM, respectively.
For the molecule `CC1C(=O)N(C)C2(CO)C(=O)O[C@H](C)C12O` (stereo not given in full), the TGI in experiment [2], in [5], in experiment [6], in [7], in [10] and in experiment [9] was above 100 µM throughout.
With `Cc1ccc(S(=O)(=O)n2cc(C(=O)C(=O)Nc3ccncc3)c3ccccc32)cc1`, the GI50 in [1] is 4.53 µM; in experiment [2] it was 0.465 µM; in experiment [3], 0.635 µM; in [4], 0.438 µM; in experiment [5], 0.765 µM; in experiment [6], 4.22 µM. In addition, the GI50 was 8.19 µM in experiment [7], 1.72 µM in experiment [8] and 5.45 µM in experiment [9]. Also, the TGI in [1] was above 100 µM; in [2], 23.1 µM; in experiment [3], 3.66 µM; in experiment [4] it was 12.9 µM; in [5], 16.7 µM; in [6] it was above 100 µM. For the same molecule, the results for the TGI in experiment [7], in experiment [8] and in [9] were above 100 µM, 16.3 µM and above 100 µM, respectively.
For `O=C(CC(=O)C(F)(F)F)c1csc2ccccc12`, the TGI in experiment [1] is above 100 µM; in [2] it was above 100 µM; in experiment [4] it was above 100 µM; in experiment [5], above 100 µM; in experiment [7], above 100 µM; in [10], 50.1 µM. Moreover, the TGI in experiment [9] was above 100 µM.
For `COc1cc2c(cc1OC)[C@@]1(C)C(=O)c3cc4c(cc3[C@H]1N(C)C2=O)OCO4`, the GI50 was 38 µM in [1]; 43.6 µM in experiment [2]; 10.4 µM in [4]; 96.2 µM in [5]; above 100 µM in [6]; above 100 µM in experiment [7]. Further, the GI50 in [9] was 34.8 µM. Moreover, the TGI in experiment [1] was above 100 µM; in experiment [2], above 100 µM; in experiment [4], 85.6 µM; in experiment [5], above 100 µM; in experiment [6], above 100 µM; in experiment [7] it was above 100 µM. Further, the TGI in experiment [9] was above 100 µM.
For `COc1ccc(OC)c2cc(C3(C)SCCCS3)ccc12`, the TGI in [1], in experiment [2], in experiment [3], in experiment [5], in [6] and in experiment [7] was above 100 µM in each case. Besides, the TGI in experiment [8] and in experiment [9] was above 100 µM each time.
As for `Cc1c(CCl)c(=O)oc2c(C)c3occ(CCl)c(=O)c3cc12`, the TGI in [1] is 14.2 µM; in [3], 20.2 µM; in [4], 30.5 µM; in experiment [5] it was above 100 µM; in experiment [7] it was above 100 µM; in experiment [8], 44.8 µM. This molecule returned a TGI in experiment [9] of 31.4 µM.
As to `O=C(O)/C(Cl)=C(\Cl)C(=O)Nc1ccccc1`, the TGI in experiment [1], in experiment [2], in experiment [5], in [6], in experiment [7] and in experiment [8] was above 100 µM each time. The TGI in experiment [10] and in experiment [9] was above 100 µM in each case.
Take `CCN(CC)CCOc1cc2c(C(=O)OC)c(C)oc2cc1C(C)=O`: the GI50 is 2.92 µM in experiment [1]; 13.2 µM in [4]; 45.1 µM in [5]; 15.4 µM in [7]; 2.58 µM in [10]; 22.5 µM in [9]. In addition, the TGI in experiment [1] is 7.59 µM; in experiment [4], above 100 µM; in experiment [5], above 100 µM; in experiment [7], 29.1 µM; in [10] it was 6.72 µM; in experiment [9], above 100 µM.
Consider `CC1C2=CC=C(O2)C(C)(C)C2=CC=C(O2)C(C)(C)C2=CC=C(O2)C(C)(C)C2=CC=C1O2`, for which the TGI in experiment [1], in experiment [2], in [3], in [4], in [6] and in experiment [7] was above 100 µM in each case. The molecule also returned a TGI in experiment [10] above 100 µM.
For the molecule `Cc1c(Cl)ccc2c1NC(=O)C2(O)C1Cc2ccccc2C1=O` (stereo not given), the TGI in experiment [1] was above 100 µM; in experiment [2], above 100 µM; in experiment [3] it was 65.4 µM; in [4], above 100 µM; in experiment [5] it was above 100 µM; in experiment [6], above 100 µM. Further, the TGI in experiment [7], in [10] and in experiment [9] was above 100 µM throughout.
Consider `Cc1cc(C)n(-c2c(O)ccc(O)c2-n2nc(C)cc2C)n1`, for which the TGI in experiment [1], in experiment [3], in experiment [4], in [5], in [6] and in experiment [7] was above 100 µM throughout. Further, the TGI in [8] and in [9] was above 100 µM throughout.
Take `CN=S(=O)(C[C@]1(O)CC2OC1C1OC(C)(C)OC21)c1ccccc1` (stereo not given in full): the TGI in [1], in experiment [2], in experiment [3], in experiment [4], in experiment [5] and in [6] was above 100 µM each time. Further, the TGI in experiment [7] and in [8] was above 100 µM throughout.
